Experimental data taken from patent US11518760B2 (Liverpool School of Tropical Medicine, priority 2017, dated 2022).

Test system: C6/36 Aedes albopictus cell line infected with Wolbachia pipientis (Wolbachia strain wAlbB)
Assay: In vitro insect cell line assay (anti-Wolbachia screen, SYTO 11 high content imaging)
Format: cell-based
Settings: 168 h; C6/36 Aedes albopictus cells infected with Wolbachia pipientis wAlbB, 7 days incubation, SYTO 11 imaging; read-out: In vitro anti-Wolbachia activity
How it was run: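 Wolbachia wAlbB-infected C6/36 Aedes albopictus cells were exposed to compounds at a final 5 μM for 7 days at 26 °C, with DMSO-medium wells as untreated controls. Cells were then stained with SYTO 11 for 15 min, imaged by high-content microscopy and scored by texture analysis.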

SMILES | EC50 [nM]
C[C@@H]1COCCN1c1nc(NCc2cccnc2C(F)(F)F)c2cccnc2n1 [Example 211, (R)-2-(3-methylmorpholino)-N-((2-(trifluoromethyl)pyridin-3-yl)methyl)pyrido[2,3-d]pyrimidin-4-amine] | 10 to 100
FC(F)(F)c1ccccc1C1CCN1c1nc(N2CCC(Cl)CC2)nc2ncccc12 (centres unmarked) [Example 212, 2-(4-chloropiperidin-1-yl)-4-(2-(2-(trifluoromethyl)phenyl)azetidin-1-yl)pyrido[2,3-d]pyrimidine] | 100 to 1000
FC1(F)CCN(c2nc(N3CCC3c3ccccc3C(F)(F)F)c3cccnc3n2)CC1 (centres unmarked) [Example 213, 2-(4,4-difluoropiperidin-1-yl)-4-(2-(2-(trifluoromethyl)phenyl)azetidin-1-yl)pyrido[2,3-d]pyrimidine] | 10 to 100
CC1COCCN1c1nc(N2CCC2c2ccccc2C(F)(F)F)c2cccnc2n1 (centres unmarked) [Example 214, 3-methyl-4-(4-(2-(2-(trifluoromethyl)phenyl)azetidin-1-yl)pyrido[2,3-d]pyrimidin-2-yl)morpholine] | 0.01 to 1
FC1(F)CCN(c2nc(N3CCC3c3ccccc3C(F)(F)F)c3cccnc3n2)C1 (centres unmarked) [Example 215, 2-(3,3-difluoropyrrolidin-1-yl)-4-(2-(2-(trifluoromethyl)phenyl)azetidin-1-yl)pyrido(2,3-d]pyrimidine] | 10 to 100
FC(F)(F)c1ccccc1C1CCN1c1nc(N2CC(C(F)(F)F)C2)nc2ncccc12 (centres unmarked) [Example 216, 2-(3-(trifluoromethyl)azetidin-1-yl)-4-(2-(2-(trifluoromethyl)phenyl)azetidin-1-yl)pyrido[2,3-d]pyrimidine] | 100 to 1000
FC(F)(F)c1ncccc1C1CCN1c1nc(N2CCC(Cl)CC2)nc2ncccc12 (centres unmarked) [Example 217, 2-(4-chloropiperidin-1-yl)-4-(2-(2-(trifluoromethyl)pyridin-3-yl)azetidin-1-yl)pyrido[2,3-d]pyrimidine] | < 0.01
FC1(F)CCN(c2nc(N3CCC3c3cccnc3C(F)(F)F)c3cccnc3n2)CC1 (centres unmarked) [Example 218, 2-(4,4-difluoropiperidin-1-yl)-4-(2-(2-(trifluoromethyl)pyridin-3-yl)azetidin-1-yl)pyrido[2,3-d]pyrimidine] | 0.01 to 1
CC1COCCN1c1nc(N2CCC2c2cccnc2C(F)(F)F)c2cccnc2n1 (centres unmarked) [Example 219, 3-methyl-4-(4-(2-(2-(trifluoromethyl)pyridin-3-yl)azetidin-1-yl)pyrido[2,3-d]pyrimidin-2-yl)morpholine] | 1 to 10
FC1(F)CCN(c2nc(N3CCC3c3cccnc3C(F)(F)F)c3cccnc3n2)C1 (centres unmarked) [Example 220, 2-(3,3-difluoropyrrolidin-1-yl)-4-(2-(2-(trifluoromethyl)pyridin-3-yl)azetidin-1-yl)pyrido[2,3-d]pyrimidine] | 0.01 to 1
FC(F)(F)c1ncccc1C1CCN1c1nc(N2CC(C(F)(F)F)C2)nc2ncccc12 (centres unmarked) [Example 221, 2-(3-(trifluoromethyl)azetidin-1-yl)-4-(2-(2-(trifluoromethyl)pyridin-3-yl)azetidin-1-yl)pyrido[2,3-d]pyrimidine] | 1 to 10
FC(F)(F)c1ccccc1CNc1nc(CN2CCC(Cl)CC2)nc2ncccc12 [Example 222] | 1000 to 100000
FC1(F)CCN(Cc2nc(NCc3ccccc3C(F)(F)F)c3cccnc3n2)CC1 [Example 223] | 100 to 1000
CC1COCCN1Cc1nc(NCc2ccccc2C(F)(F)F)c2cccnc2n1 (centres unmarked) [Example 224] | 1000 to 100000
FC(F)(F)c1ccccc1CNc1nc(CN2CC(C(F)(F)F)C2)nc2ncccc12 [Example 226] | 100 to 1000
FC(F)(F)c1ncccc1CNc1nc(CN2CCC(Cl)CC2)nc2ncccc12 [Example 227, 2-((4-chloropiperidin-1-yl)methyl)-N-((2-(trifluoromethyl)pyridin-3-yl)methyl)pyrido[2,3-d]pyrimidin-4-amine] | 100 to 1000
FC1(F)CCN(Cc2nc(NCc3cccnc3C(F)(F)F)c3cccnc3n2)CC1 [Example 228, 2-((4,4-difluoropiperidin-1-yl)methyl)-N-((2-(trifluoromethyl)pyridin-3-yl)methyl)pyrido[2,3-d]pyrimidin-4-amine] | 100 to 1000
CC1COCCN1Cc1nc(NCc2cccnc2C(F)(F)F)c2cccnc2n1 (centres unmarked) [Example 229, 2-((3-methylmorpholino)methyl)-N-((2-(trifluoromethyl)pyridin-3-yl)methyl)pyrido[2,3-d]pyrimidin-4-amine] | 1000 to 100000
FC1(F)CCN(Cc2nc(NCc3cccnc3C(F)(F)F)c3cccnc3n2)C1 [Example 230, 2-((3,3-difluoropyrrolidin-1-yl)methyl)-N-((2-(trifluoromethyl)pyridin-3-yl)methyl)pyrido[2,3-d]pyrimidin-4-amine] | 1000 to 100000

SMILES | EC50 [nM]
FC(F)(F)c1ncccc1CNc1nc(CN2CC(C(F)(F)F)C2)nc2ncccc12 [Example 231, 2-((3-(trifluoromethyl)azetidin-1-yl)methyl)-N-((2-(trifluoromethyl)pyridin-3-yl)methyl)pyrido[2,3-d]pyrimidin-4-amine] | 100 to 1000
CS(=O)(=O)C1CCN(c2nc(NCc3cccnc3C(F)(F)F)c3cccnc3n2)CC1 [Example 232, 2-(4-(methylsulfonyl)piperidin-1-yl)-N-((2-(trifluoromethyl)pyridin-3-yl)methyl)pyrido[2,3-d]pyrimidin-4-amine] | 100 to 1000
CC1(C)CCN(c2nc(NCc3cccnc3C(F)(F)F)c3cccnc3n2)CC1 [Example 233, 2-(4,4-dimethyipiperidin-1-yl)-N-((2-(trifluoromethyl)pyridin-3-yl)methyl)pyrido[2,3-d]pyrimidin-4-amine] | 10 to 100
N#CC1CCN(c2nc(NCc3cccnc3C(F)(F)F)c3cccnc3n2)CC1 [Example 234, 1-(4-(((2-(trifluoromethyl)pyridin-3-yl)methyl)amino)pyrido[2,3-d]pyrimidin-2-yl)piperidine-4-carbonitrile] | 1 to 10
FC(F)(F)c1ncccc1CNc1nc(N2CCC(C(F)(F)F)CC2)nc2ncccc12 [Example 235, 2-(4-(trifluoromethyl)piperidin-1-yl)-N-((2-(trifluoromethyl)pyridin-3-yl)methyl)pyrido[2,3-d]pyrimidin-4-amine] | 0.01 to 1
FC(F)(F)c1ncccc1CNc1nc(N2CCC(C(F)(F)F)C2)nc2ncccc12 (centres unmarked) [Example 236, N-((2-(trifluoromethyl)pyridin-3-yl)methyl)-2-(3-(trifluoromethyl)pyrrolidin-1-yl)pyrido[2,3-d]pyrimidin-4-amine] | < 0.01
N#CC1CN(c2nc(NCc3cccnc3C(F)(F)F)c3cccnc3n2)C1 [Example 237, 1-(4-(((2-(trifluoromethyl)pyridin-3-yl)methyl)amino)pyrido[2,3-d]pyrimidin-2-yl)azetidine-3-carbonitrile] | 100 to 1000
N#CC1CCCN1c1nc(NCc2cccnc2C(F)(F)F)c2cccnc2n1 (centres unmarked) [Example 238, 1-(4-(((2-(trifluoromethyl)pyridin-3-yl)methyl)amino)pyrido[2,3-d]pyrimidin-2-yl)pyrrolidine-2-carbonitrile] | 10 to 100
CC1(C)CN(c2nc(NCc3cccnc3C(F)(F)F)c3cccnc3n2)CCO1 [Example 239, 2-(2,2-dimethylmorpholino)-N-((2-(trifluororoethyl)pyridin-3-yl)methyl)pyrido[2,3-d]pyrimidin-4-amine] | 0.01 to 1
CC1(C)COCCN1c1nc(NCc2cccnc2C(F)(F)F)c2cccnc2n1 [Example 240, 2-(3,3-dimethylmorpholino)-N-((2-(trifluoromethyl)pyridin-3-yl)methyl)pyrido[2,3-d]pyrimidin-4-amine] | 0.01 to 1
CC1CN(c2nc(NCc3cccnc3C(F)(F)F)c3cccnc3n2)CCO1 (centres unmarked) [Example 241, 2-(2-methylmorpholino)-N-((2-(trifluoromethyl)pyridin-3-yl)methyl)pyrido[2,3-d]pyrimidin-4-amine] | 0.01 to 1
FC1CCN(c2nc(NCc3cccnc3C(F)(F)F)c3cccnc3n2)C1 (centres unmarked) [Example 242, 2-(3-fluoropyrrolidin-1-yl)-N-((2-(trifluoromethyl)pyridin-3-yl)methyl)pyrido[2,3-a]pyrimidin-4-amine] | 1 to 10
CS(=O)(=O)C1CCN(c2nc(NCc3ccccc3C(F)(F)F)c3cccnc3n2)CC1 [Example 243, 2-(4-(methylsulfonyl)piperidin-1-yl)-N-(2-(trifluoromethyl)benzyl)pyrido[2,3-d]pyrimidin-4-amine] | 100 to 1000
CC1(C)CCN(c2nc(NCc3ccccc3C(F)(F)F)c3cccnc3n2)CC1 [Example 244, 2-(4,4-dimethylpiperidin-1-yl)-N-(2-(trifluoromethyl)benzyl)pyndo[2,3-d]pyrimidin-4-amine] | 1 to 10
N#CC1CN(c2nc(NCc3ccccc3C(F)(F)F)c3cccnc3n2)C1 [Example 245, 1-(4-((2-(trifluoromethyl)benzyl)amino)pyrido[2,3-d]pyrimidin-2-yl)azetidine-3-carbonitrile] | 1 to 10
CC1(C)COCCN1c1nc(NCc2ccccc2C(F)(F)F)c2cccnc2n1 [Example 246, 2-(3,3-dimethylmorpholino)-N-(2-(trifluoromethyl)benzyl)pyrido[2,3-d]pyrimidin-4-amine] | 100 to 1000
CC1(C)CN(c2nc(NCc3ccccc3C(F)(F)F)c3cccnc3n2)CCO1 [Example 247, 2-(2,2-dimethylmorpholino)-N-(2-(trifluoromethyl)benzyl)pyrido[2,3-d]pyrimidin-4-amine] | < 0.01
CC1CN(c2nc(NCc3ccccc3C(F)(F)F)c3cccnc3n2)CCO1 (centres unmarked) [Example 248, 2-(2-methylmorpholino)-N-(2-(trifluoromethyl)benzyl)pyrido[2,3-d]pyrimidin-4-amine] | 0.01 to 1
FC(F)(F)c1ncccc1CNc1nc(N2CCCC(C(F)(F)F)C2)nc2ncccc12 (centres unmarked) [Example 249, 2-(3-(trifluoromethyl)piperidin-1-yl)-N-((2-(trifluoromethyl)pyridin-3-yl)methyl)pyrido[2,3-d]pyrimidin-4-amine] | < 0.01
